# How the values were obtained:
# WM3928 cells = assay: WM3928 cell proliferation assay (1), resazurin, 96-well; assay type: cell-based; conditions: inhibition of cell proliferation
# Procedure, shortened: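 IC50 was derived from resazurin fluorescence (ex 540, em 600 nm) after a 6–7 h dye incubation. Before that, cells had 67–72 h of compound exposure at 37 °C, 5% CO2.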
# A375 cells = assay: A375 cell proliferation assay (1), resazurin, 96-well; assay type: cell-based; conditions: Homo sapiens, A-375, inhibition of cell proliferation
# Procedure, shortened: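 Viability was read by resazurin fluorescence at 540 nm excitation and 600 nm emission, using a 440 μM solution added for 5–6 h at the end of culture. IC50 came from the curve fit.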
# A-Raf kinase = target: T1, A-Raf kinase (Homo sapiens, UniProt P10398, Y301D/Y302D); assay: Biochemical assay for A-Raf.1 (coupled pyruvate kinase/lactate dehydrogenase); conditions: read-out: ARAF.1 IC50
# T1 construct: purchased Sigma
# T1 sequence (P10398 with tags, fused parts or gaps Y301D/Y302D): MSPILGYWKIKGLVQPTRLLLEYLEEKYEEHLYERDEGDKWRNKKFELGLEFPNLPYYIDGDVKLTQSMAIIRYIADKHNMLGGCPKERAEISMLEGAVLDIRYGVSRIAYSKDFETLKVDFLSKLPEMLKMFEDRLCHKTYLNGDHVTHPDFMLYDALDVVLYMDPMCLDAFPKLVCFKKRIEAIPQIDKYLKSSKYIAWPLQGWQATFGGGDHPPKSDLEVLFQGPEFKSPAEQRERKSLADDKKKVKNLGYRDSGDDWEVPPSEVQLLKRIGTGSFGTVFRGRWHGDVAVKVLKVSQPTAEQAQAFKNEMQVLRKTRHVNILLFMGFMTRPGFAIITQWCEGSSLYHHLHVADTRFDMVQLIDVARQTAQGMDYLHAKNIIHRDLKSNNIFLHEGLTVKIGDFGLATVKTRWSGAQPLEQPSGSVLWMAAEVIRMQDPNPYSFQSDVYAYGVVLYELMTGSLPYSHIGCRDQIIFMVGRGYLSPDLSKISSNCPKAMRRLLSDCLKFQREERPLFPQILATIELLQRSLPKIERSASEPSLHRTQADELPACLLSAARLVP
# Procedure, shortened: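 IC50 values came from four-parameter sigmoidal fits of percent inhibition, using rates over the 4 to 5 h window of continuous A340 readings (6 h, 30° C). The coupled PK/LDH system tracked NADH oxidation during 5.55 nM A-Raf activity on 30.1 nM MEK at 1 mM ATP, buffer pH 7.5.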
# B-Raf kinase = target: T2, B-Raf kinase (Homo sapiens, UniProt P15056); assay: Biochemical assay for B-Raf.1 (coupled pyruvate kinase/lactate dehydrogenase); conditions: read-out: BRAF.1 IC50
# T2 construct: GST (N); purchased Sigma
# T2 sequence (P15056 416-766): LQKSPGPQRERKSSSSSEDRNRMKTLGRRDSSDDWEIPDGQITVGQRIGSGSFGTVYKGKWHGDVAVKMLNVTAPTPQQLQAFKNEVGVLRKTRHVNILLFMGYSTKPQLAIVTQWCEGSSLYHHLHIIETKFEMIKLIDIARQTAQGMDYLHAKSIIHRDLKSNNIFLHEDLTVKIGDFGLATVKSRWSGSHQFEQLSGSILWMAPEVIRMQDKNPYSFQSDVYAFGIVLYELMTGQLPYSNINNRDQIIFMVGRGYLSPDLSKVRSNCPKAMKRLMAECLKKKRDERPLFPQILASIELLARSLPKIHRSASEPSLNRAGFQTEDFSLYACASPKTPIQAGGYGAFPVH
# Procedure, shortened: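 Reaction rates over the 4–5 h window of a continuous 6 h, 30 °C read were converted to percent inhibition and fitted for IC50. B-Raf (0.13 nM) phosphorylated 30.1 nM MEK with 1 mM ATP; ADP coupled via PK/LDH to NADH loss at 340 nm, 1% DMSO final.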
IC50 (A375 cells) [nM],IC50 (A-Raf kinase) [nM],IC50 (B-Raf kinase) [nM],Compound,IC50 (WM3928 cells) [nM]
1000 to 10000,> 1000,≤ 100,COC(C)(C)CCNC(=O)Nc1cc(-c2cc(OCCO)nc(-c3ccnc4[nH]ccc34)c2)c(C)cc1F [Example 90],500 to 1000
1000 to 10000,> 1000,> 1000,Cc1cc(F)c(NC(=O)NCC[C@@H]2CCO2)cc1-c1cc(OCCO)nc(-c2ccnc3[nH]ncc23)c1 [Example 89],1000 to 10000
500 to 1000,> 1000,≤ 100,COC(C)(C)CCNC(=O)Nc1cc(-c2cc(OCCO)nc(-c3ccnc4[nH]ncc34)c2)c(C)cc1F [Example 91],100 to 500
100 to 500,,,COC(=O)Nc1cc(-c2cncc(-c3cc(NC(=O)N4CC[C@H](C(F)(F)F)C4)ccc3C)c2)ncn1 [Example 224],100 to 500
1000 to 10000,> 1000,500 to 1000,Cc1cc(F)c(NC(=O)N2CCC(C)(C#N)CC2)cc1-c1cc(OCCO)nc(-c2ccnc3[nH]ncc23)c1 [Example 92],1000 to 10000
1000 to 10000,> 1000,500 to 1000,Cc1cc(F)c(NC(=O)N[C@@H]2CC[C@H](F)C2)cc1-c1cc(OCCO)nc(-c2ccnc3[nH]ncc23)c1 [Example 88],1000 to 10000
100 to 500,500 to 1000,≤ 100,Cc1cc(F)c(NC(=O)NCCC2(C)CC2)cc1-c1cc(OCCO)nc(-c2ccnc3[nH]ncc23)c1 [Example 87],≤ 100
1000 to 10000,,,CNC(=O)c1cc(-c2cc(-c3cc(NC(=O)N4CC[C@H](C(F)(F)F)C4)ccc3C)ccn2)ccn1 [Example 215],500 to 1000
100 to 500,> 1000,≤ 100,COC(=O)Nc1cc(-c2cccc(-c3cc(NC(=O)NCCC(C)(C)OC)c(F)cc3C)c2)ccn1 [Example 85],100 to 500

# — US20230357179A1, “RAF KINASE INHIBITORS AND METHODS OF USE THEREOF” (Deciphera Pharmaceuticals, LLC, priority 2021, published 2023)
